Results reported in ChEMBL document CHEMBL3856231 (J Med Chem, 2016).
Active and inactive are the calls of the source. The calls are words filed in the database; no cut-off is given here.

How the values were obtained:
Cytochrome P450 2C9 = Cytochrome P450 2C9 (Homo sapiens, UniProt P11712); experiment: Inhibition of CYP2C9 in human liver microsomes using diclofenac as substrate in presence of NADPH by LC/MS/MS analysis; assay type: ADME
SUP-M2 [1] = experiment: Induction of apoptosis assessed as caspase 3/7 activation in human SUP-M2 cells expressing NPM-ALK; assay type: functional, cell-based
[2] = Binding affinity to partial length human ALK 1151Tins mutant expressed in mammalian system by KINOMEscan assay
[3] = AUC (0 to infinity) in Sprague-Dawley rat at 1 mg/kg, iv by LC/MS/MS analysis; assay type: ADME, organism-based; parameters: dose 1 mg/kg, time infinity, route intravenous; conditions: in vivo
[4] = AUC (0 to infinity) in CD-1 mouse at 10 mg/kg, po by LC/MS/MS analysis; assay type: ADME, organism-based; parameters: dose 10 mg/kg, time infinity, route oral; conditions: in vivo
[5] = Half life in rat liver microsomes by LC/MS/MS analysis; assay type: ADME
[6] = Dose normalized AUC in cynomolgus monkey at 10 mg/kg, po by LC/MS/MS analysis; assay type: ADME, organism-based, Macaca fascicularis; conditions: in vivo
SUP-M2 [7] = experiment: Antitumor activity against human SUP-M2 cells expressing NPM-ALK xenografted in po dosed SCID-Beige mouse assessed as reduction in tumor volume administered twice daily for 12 days measured during compound dosing; assay type: functional, organism-based
IBC = experiment: Cytotoxicity against human IBC cells assessed as reduction in cell proliferation; assay type: functional, cell-based
HCC827 = experiment: Antitumor activity against human HCC827 cells expressing activated FAK xenografted in SCID-Beige mouse assessed as tumor growth inhibition at 30 mg/kg, po bid administered for 28 days; assay type: functional, organism-based
[8] = Drug level in tumor of FAK expressing human CWR22 cells xenografted Nu/Nu mouse at 55 mg/kg, po administered as single dose measured at 24 hrs by LC-MS/MS analysis; assay type: ADME, organism-based, Neoplasm; conditions: read-out: Drug uptake
[9] = Drug level in tumor of NPM-ALK expressing human SUP-M2 cells xenografted mouse at 30 mg/kg, po administered as single dose measured at 6 hrs by LC-MS/MS analysis; assay type: ADME, organism-based, Neoplasm; conditions: read-out: Drug uptake
[10] = Clearance in Sprague-Dawley rat at 1 mg/kg, iv by LC/MS/MS analysis; assay type: ADME, organism-based; conditions: in vivo
[11] = Drug level in plasma of NPM-ALK expressing human SUP-M2 cells xenografted mouse at 30 mg/kg, po administered as single dose measured at 24 hrs by LC-MS/MS analysis; assay type: ADME, organism-based
[12] = Oral bioavailability in CD-1 mouse at 10 mg/kg by LC/MS/MS analysis; assay type: ADME, organism-based; conditions: in vivo
[13] = Volume of distribution in Sprague-Dawley rat at 1 mg/kg, iv by LC/MS/MS analysis; assay type: ADME, organism-based; conditions: in vivo
[14] = Drug level in plasma of NPM-ALK expressing human SUP-M2 cells xenografted mouse at 30 mg/kg, po administered as single dose measured at 6 hrs by LC-MS/MS analysis; assay type: ADME, organism-based
[15] = Dose normalized AUC in CD-1 mouse at 10 mg/kg, po by LC/MS/MS analysis; assay type: ADME, organism-based; conditions: in vivo
[16] = Cytotoxicity against human KARPAS299 cells expressing NPM-ALK assessed as cell growth inhibition; assay type: functional, cell-based; conditions: KARPAS-299
[17] = Drug level in plasma of FAK expressing human CWR22 cells xenografted Nu/Nu mouse at 55 mg/kg, po administered as single dose measured at 2 hrs by LC-MS/MS analysis; assay type: ADME, organism-based
[18] = Drug level in plasma of NPM-ALK expressing human SUP-M2 cells xenografted mouse at 30 mg/kg, po administered as single dose measured at 12 hrs by LC-MS/MS analysis; assay type: ADME, organism-based
NCI-H2228 = experiment: Antitumor activity against human NCI-H2228 cells expressing EML4-ALK xenografted in SCID-Beige mouse assessed as reduction in tumor re-emergence at 30 and 55 mg/kg, po bid for 11 days followed by switching of drug schedule to 55 mg/kg, po qd on day 12 up to day 40 and measured on day 80; assay type: functional, organism-based
[19] = Antitumor activity against human CTG-0142 cells expressing activated FAK xenografted in mouse assessed as tumor growth inhibition at 55 mg/kg, po bid administered for 28 days measured during compound dosing; assay type: functional; conditions: CTG-0142, po, 672 h, read-out: TGI
Cytochrome P450 1A2 = target: T1, Cytochrome P450 1A2 (Homo sapiens, UniProt P05177); experiment: Inhibition of CYP1A2 in human liver microsomes using phenacetin as substrate in presence of NADPH by LC/MS/MS analysis; assay type: ADME
T1 sequence (P05177 whole entry): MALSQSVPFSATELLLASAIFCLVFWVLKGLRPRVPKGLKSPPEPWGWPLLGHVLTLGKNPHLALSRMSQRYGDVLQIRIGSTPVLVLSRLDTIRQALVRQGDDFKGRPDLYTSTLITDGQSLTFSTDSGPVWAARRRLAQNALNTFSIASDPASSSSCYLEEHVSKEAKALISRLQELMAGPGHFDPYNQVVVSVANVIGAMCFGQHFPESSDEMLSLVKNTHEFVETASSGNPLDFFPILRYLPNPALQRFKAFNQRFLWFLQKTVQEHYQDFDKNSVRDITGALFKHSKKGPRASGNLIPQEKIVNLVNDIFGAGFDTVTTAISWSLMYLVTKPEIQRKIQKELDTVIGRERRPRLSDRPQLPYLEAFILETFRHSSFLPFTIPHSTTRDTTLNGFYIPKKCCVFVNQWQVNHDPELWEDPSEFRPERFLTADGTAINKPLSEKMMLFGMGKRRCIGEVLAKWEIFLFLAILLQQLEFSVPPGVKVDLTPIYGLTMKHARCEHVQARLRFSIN

Mus musculus [20] = experiment: Toxicity in SCID-Beige mouse xenografted with human HCC827 cells expressing activated FAK assessed as overt toxicity at 30 to 55 mg/kg, po bid administered for 28 days; assay type: organism-based; conditions: in vivo, 672 h
[21] = (§1) Cytotoxicity against human NCI-H3122 cells expressing EML4-ALK assessed as cell growth inhibition; assay type: functional, cell-based
NCI-H3122 = experiment: as §1; assay type: functional, cell-based
[22] = Cmax in Sprague-Dawley rat at 5 mg/kg, po by LC/MS/MS analysis; assay type: ADME, organism-based; parameters: dose 5 mg/kg, route oral; conditions: in vivo
Mus musculus [23] = experiment: Toxicity in SCID-Beige mouse xenografted with human HCC827 cells expressing activated FAK assessed as body weight loss at 30 to 55 mg/kg, po bid administered for 28 days measured every 2 to 3 days; assay type: organism-based; conditions: in vivo
[24] = Half life in human liver microsomes by LC/MS/MS analysis; assay type: ADME
[25] = Half life in cynomolgus monkey at 1 mg/kg, iv by LC/MS/MS analysis; assay type: ADME, organism-based, Macaca fascicularis; conditions: in vivo
[26] = Tmax in Sprague-Dawley rat at 5 mg/kg, po by LC/MS/MS analysis; assay type: ADME, organism-based; conditions: in vivo
CTG-0142 = experiment: Antitumor activity against human CTG-0142 cells expressing activated FAK xenografted in mouse assessed as tumor stasis at 55 mg/kg, po bid administered for 28 days measured during compound dosing; assay type: functional, organism-based
[27] = AUC (0 to infinity) in cynomolgus monkey at 1 mg/kg, iv by LC/MS/MS analysis; assay type: ADME, organism-based, Macaca fascicularis; parameters: dose 1 mg/kg, route intravenous, time infinity; conditions: in vivo
[28] = Cmax in CD-1 mouse at 10 mg/kg, po by LC/MS/MS analysis; assay type: ADME, organism-based; parameters: dose 10 mg/kg, route oral; conditions: in vivo

Cytochrome P450 2C9, sequence (P11712 whole entry): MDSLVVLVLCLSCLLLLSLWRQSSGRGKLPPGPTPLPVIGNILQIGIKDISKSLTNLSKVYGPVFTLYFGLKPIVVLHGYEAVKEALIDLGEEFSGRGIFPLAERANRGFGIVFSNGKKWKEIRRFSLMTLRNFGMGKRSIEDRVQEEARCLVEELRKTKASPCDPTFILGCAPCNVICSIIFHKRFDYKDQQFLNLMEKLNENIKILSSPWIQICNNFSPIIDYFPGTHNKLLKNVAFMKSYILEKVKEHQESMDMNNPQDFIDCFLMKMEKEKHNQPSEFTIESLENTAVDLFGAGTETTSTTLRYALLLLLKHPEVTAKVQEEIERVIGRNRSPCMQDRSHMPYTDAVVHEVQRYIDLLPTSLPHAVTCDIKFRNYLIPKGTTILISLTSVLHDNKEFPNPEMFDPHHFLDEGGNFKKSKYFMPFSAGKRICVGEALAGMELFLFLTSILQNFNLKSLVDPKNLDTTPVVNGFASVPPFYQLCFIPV

CNC(=O)c1ccccc1Nc1nc(Nc2ccc3c(c2OC)CCC[C@H](N2CCN(CCO)CC2)C3)ncc1Cl [CEP-37440]
IC50 (Cytochrome P450 2C9): > 5.6 µM
Activity (SUP-M2 [1]): Active
Kd [2]: 0.0026 µM
AUC(0-inf) [3]: 4 µg·h/mL
AUC(0-inf) [4]: 16.4 µg·h/mL
half-life [5]: 0.667 h
AUC/dose [6]: 276 ng·h/mL
Activity (SUP-M2 [7]): Dose-dependent effect
growth inhibition (GI) (IBC): Dose-dependent effect
TGI (HCC827): Active
concentration at 24 h [8]: 8680 ng/g
concentration at 6 h [9]: 6930 ng/g
clearance [10]: 0.18 to 0.24 L/h/kg
concentration at 24 h [11]: 1.16 µg/mL
bioavailability [12]: 102%
Vd [13]: 0.8 L/kg
concentration at 6 h [14]: 3.35 µg/mL
AUC/dose [15]: 1643 ng·h/mL
IC50 [16]: 0.131 µM
concentration at 2 h [17]: 4.13 µg/mL
concentration at 12 h [18]: 4.03 µg/mL
Activity (NCI-H2228): Active
inhibition in vivo at 55 mg/kg [19]: 75%
IC50 (Cytochrome P450 1A2): > 5.6 µM
Activity (Mus musculus [20]): Non-Toxic
IC50 [21]: 1.78 µM
growth inhibition (GI) (NCI-H3122): Dose-dependent effect
Cmax [22]: 1.34 µg/mL
Activity (Mus musculus [23]): Non-Toxic
half-life [24]: 0.667 h
half-life [25]: 5.4 h
Tmax [26]: 3.3 h
Activity (CTG-0142): Active
AUC(0-inf) [27]: 0.554 µg·h/mL
Cmax [28]: 1.53 µg/mL
